Source: patent US8952024B2, “Herbicidal pyrimidone derivatives” (E I du Pont de Nemours and Company, priority 2009, dated 2015)

What was measured:
Type in all cases: in vivo
[1] = system: pigweed (Amaranthus retroflexus); test: Test B pre-/postemergence plant response
Procedure, shortened: (§1)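 Response scores were assigned visually after 13 to 15 days in a greenhouse, comparing treated pots with controls on a 0–100 scale where 100 denotes complete control. Preemergence treatments went onto freshly seeded loam/sand soil; postemergence treatments onto plants 2 to 18 cm tall.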

[2] = system: galium (catchweed bedstraw, Galium aparine); test: Test B pre-/postemergence plant response; details: Preemergence
Procedure, shortened: as §1

[3] = system: nightshade (eastern black nightshade, Solanum ptycanthum); test: Test B pre-/postemergence plant response; details: Preemergence
Procedure, shortened: as §1

[4] = system: Russian thistle (Salsola kali); test: Test B pre-/postemergence plant response; details: Preemergence, 62 g ai/ha; scale 0 to 100, 0 no effect, 100 complete control
Procedure, shortened: as §1

wild oat (Avena fatua) = test: Test B pre-/postemergence plant response
Procedure, shortened: as §1

[5] = system: sunflower (common oilseed sunflower, Helianthus annuus); test: Test B pre-/postemergence plant response; details: Preemergence
Procedure, shortened: as §1

[6] = system: canarygrass (Phalaris minor); test: Test B postemergence plant response
Procedure, shortened: (§2)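 Plants at the 1- to 4-leaf stage (2 to 18 cm tall), grown in pots of peat moss/vermiculite medium with wetting agent and starter nutrients, received postemergence applications of test chemicals. After 13 to 15 days in a greenhouse, injury was rated visually against untreated controls on a 0 (no effect) to 100 (complete control) scale.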

[7] = system: chickweed (Stellaria media); test: Test B postemergence plant response
Procedure, shortened: as §2

[8] = system: winter barley (Hordeum vulgare); test: Test B postemergence plant response
Procedure, shortened: as §2

[9] = system: windgrass (Apera spica-venti); test: Test B postemergence plant response
Procedure, shortened: as §2

[10] = system: ducksalad (Heteranthera limosa); test: Test B flooded paddy test; details: for Plant response rating, Ducksalad: Flood (flooded paddy test), 13 to 15 days
Procedure, shortened: (§3)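 Visual scores run from 0 (no effect) to 100 (complete control), assigned by comparison with controls 13 to 15 days after treatment. Test compounds went straight into water standing 3 cm above the soil, around plants at the 2-leaf stage kept in a greenhouse.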

rice (Oryza sativa) = test: Test B flooded paddy test; details: for Plant response rating, Rice: Flood (flooded paddy test), 13 to 15 days
Procedure, shortened: as §3

[11] = system: barnyardgrass (Echinochloa crus-galli); test: Test B flooded paddy test; details: for Plant response rating, Barnyardgrass: Flood (flooded paddy test), 13 to 15 days
Procedure, shortened: as §3

[12] = system: umbrella sedge (Cyperus difformis); test: Test B flooded paddy test; details: for Plant response rating, Sedge, Umbrella: Flood (flooded paddy test), 13 to 15 days
Procedure, shortened: as §3

[13] = 31 g ai/ha, postemergence, scale 0 to 100, 0 is no effect, 100 is complete control
[14] = Postemergence, 62 g ai/ha, scale 0 (no effect) to 100 (complete control), 13 to 15 days
[15] = Postemergence, 125 g ai/ha, visual rating after 13 to 15 days, scale 0 (no effect) to 100 (complete control)
[16] = Postemergence, 250 g ai/ha, scale 0 to 100 (0 no effect, 100 complete control)
[17] = Preemergence, 31 g ai/ha, scale 0 to 100 (0 no effect, 100 complete control)
[18] = Preemergence, 62 g ai/ha, scale 0 to 100, 0 no effect, 100 complete control
[19] = Preemergence, 125 g ai/ha, scale 0 to 100, 0 no effect, 100 complete control
[20] = 31 g ai/ha, scale 0 to 100 (0 no effect, 100 complete control)
[21] = 62 g ai/ha, scale 0 to 100, 0 no effect, 100 complete control
[22] = 125 g ai/ha, scale 0 to 100, 0 no effect, 100 complete control
[23] = 250 g ai/ha, flooded paddy test, visual rating on 0 to 100 scale (0 no effect, 100 complete control) after 13 to 15 days
[24] = 62 g ai/ha, scale of 0 to 100 where 0 is no effect and 100 is complete control
[25] = 125 g ai/ha, scale 0 to 100, 0 is no effect, 100 is complete control
[26] = Flood, 31 g ai/ha, scale 0 to 100 (0 no effect, 100 complete control)

SMILES: O=C1CCCC(O)=C1C(=O)c1cnc(-c2cccs2)n(-c2ccccc2)c1=O [Compound 66]
- Plant response rating, Pigweed [1, 13]: 98
- Plant response rating, Pigweed [1, 14]: 98
- Plant response rating, Pigweed [1, 15]: 100
- Plant response rating, Pigweed [1, 16]: 100
- Plant response rating, Pigweed [1, 17]: 98
- Plant response rating, Pigweed [1, 18]: 98
- Plant response rating, Pigweed [1, 19]: 98
- Plant response rating, Galium ([2]; 250 g ai/ha, 0 to 100 scale): 0
- Plant response rating, Galium [2, 20]: 0
- Plant response rating, Galium [2, 21]: 0
- Plant response rating, Galium [2, 22]: 0
- Plant response rating, Nightshade [3, 20]: 80
- Plant response rating, Nightshade [3, 21]: 95
- Plant response rating, Nightshade [3, 22]: 98
- Plant response rating, Russian Thistle [4]: 0
- Plant response rating, Oat, Wild (wild oat (Avena fatua); [13]): 0
- Plant response rating, Oat, Wild (wild oat (Avena fatua); [14]): 0
- Plant response rating, Oat, Wild (wild oat (Avena fatua); [15]): 5
- Plant response rating, Oat, Wild (wild oat (Avena fatua); [16]): 10
- Plant response rating, Oat, Wild (wild oat (Avena fatua); [17]): 0
- Plant response rating, Oat, Wild (wild oat (Avena fatua); [18]): 0
- Plant response rating, Oat, Wild (wild oat (Avena fatua); [19]): 0
- Plant response rating, Sunflower [5, 20]: 0
- Plant response rating, Sunflower [5, 21]: 0
- Plant response rating, Sunflower [5, 22]: 0
- Plant response rating, Canarygrass [6, 13]: 0
- Plant response rating, Canarygrass [6, 14]: 0
- Plant response rating, Canarygrass [6, 15]: 0
- Plant response rating, Canarygrass [6, 16]: 0
- Plant response rating, Chickweed [7, 13]: 80
- Plant response rating, Chickweed [7, 14]: 85
- Plant response rating, Chickweed [7, 15]: 95
- Plant response rating, Chickweed [7, 16]: 98
- Plant response rating, Barley [8, 13]: 0
- Plant response rating, Barley [8, 14]: 0
- Plant response rating, Barley [8, 15]: 0
- Plant response rating, Barley [8, 16]: 0
- Plant response rating, Windgrass [9, 13]: 60
- Plant response rating, Windgrass [9, 14]: 60
- Plant response rating, Windgrass [9, 15]: 70
- Plant response rating, Windgrass [9, 16]: 80
- Plant response rating, Flood, Ducksalad [10, 23]: 20
- Plant response rating, Ducksalad [10, 24]: 0
- Plant response rating, Ducksalad [10, 25]: 0
- Ducksalad plant response rating [10, 26]: 0
- Plant response rating, Flood, Rice (rice (Oryza sativa); [23]): 20
- Plant response rating, Rice (rice (Oryza sativa); [24]): 0
- Plant response rating, Rice (rice (Oryza sativa); [25]): 0
- Rice plant response rating (rice (Oryza sativa); [26]): 0
- Plant response rating, Flood, Barnyardgrass [11, 23]: 45
- Plant response rating, Barnyardgrass [11, 24]: 0
- Plant response rating, Barnyardgrass [11, 25]: 0
- Barnyardgrass plant response rating [11, 26]: 0
- Plant response rating, Flood, Sedge, Umbrella [12, 23]: 50
- Plant response rating, Sedge, Umbrella [12, 24]: 0
- Plant response rating, Sedge, Umbrella [12, 25]: 30
- Sedge, Umbrella plant response rating [12, 26]: 0
